Source: patent US10294259B2, “Phenyl c-glucoside derivative containing deoxyglucose structure, preparation method and use thereof” (Tianjin Institute of Pharmaceutical Research, priority 2012, dated 2019)

Experiments:
[1] = tested on: SD rats (type 2 diabetes model); assay: Urine glucose excretion in streptozotocin/high-fat high-sucrose diet type 2 diabetes model rats, glucose-oxidase method; format: in vivo, rat; details: for Urine glucose excretion: 6 mg/kg intragastric, glucose 2 g/kg at 0.5 h, urine collected 0-12 h; for urine glucose excretion effect (comparison in words): compared with analogues or non-deoxy compounds
Experimental: The health SD rats are injected intraperitoneally with multiple low doses of streptozotocin for modeling (type 2 diabetes model) after feeding with high-fat and high-sucrose diet, and the content of blood glucose is measured before and after modeling. After the modeling successful, the rats for modeling are randomly divided (8 rats/group) into one blank group (administering the same volume of 0.5% CMC sodium solution) and several groups for compounds to be tested (6 mg/kg) according to the content of 24-hour urine glucose and the body weight. Rats in each group are fasted for 16 hours before experiment. The experimental rats are administered intragastrically with glucose (2 g/kg) at 0.5 h after intragastrical administration with compounds to be tested. The urine is collected at the time-period of 0-12 h after administration, and the urine glucose values are measured at each time-period by glucose-oxidase method. […]

Mice = details: single dose 750 mg/kg intragastric, 10 mice/group, observed one week;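 note: test animals were mice weighing 18-20 g, with both sexes in equal numbers in each group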
Experimental: Mice (18-20 g) with equal numbers of male and female are divided into groups (10 mice/group), after normal feeding for 3 days, fasted for 12 hours, and then administered intragastrically with a single dose of 750 mg/kg compound respectively.

hSGLT2 = hSGLT2 (Homo sapiens (Human), UniProt P31639); assay: IC50 of inhibition on SGLT2 (method of Meng et al., J. Med. Chem. 2008); format: cell-based
hSGLT1 = hSGLT1 (Homo sapiens (Human), UniProt P13866); assay: IC50 of inhibition on SGLT1 (method of Meng et al., J. Med. Chem. 2008); format: cell-based; details: compared with methoxyl and methyl analogues of Table 3
[2] = Influencing factors test: light stability; format: physicochemical; details: listed as I-D1-6 raw materials
Description: (§1) The appearance, number of impurity and the amount of impurity (measured by HPLC) are compared with that of day 0.

[3] = Influencing factors test: higher temperature stability; format: physicochemical; details: listed as I-D1-6 raw materials
Description: as §1

[4] = Influencing factors test: higher humidity stability; format: physicochemical; details: listed as I-D1-6 raw materials
Description: as §1

[5] = compared with methoxyl and methyl analogues of Table 3

Chain of hSGLT2 (P31639 whole entry): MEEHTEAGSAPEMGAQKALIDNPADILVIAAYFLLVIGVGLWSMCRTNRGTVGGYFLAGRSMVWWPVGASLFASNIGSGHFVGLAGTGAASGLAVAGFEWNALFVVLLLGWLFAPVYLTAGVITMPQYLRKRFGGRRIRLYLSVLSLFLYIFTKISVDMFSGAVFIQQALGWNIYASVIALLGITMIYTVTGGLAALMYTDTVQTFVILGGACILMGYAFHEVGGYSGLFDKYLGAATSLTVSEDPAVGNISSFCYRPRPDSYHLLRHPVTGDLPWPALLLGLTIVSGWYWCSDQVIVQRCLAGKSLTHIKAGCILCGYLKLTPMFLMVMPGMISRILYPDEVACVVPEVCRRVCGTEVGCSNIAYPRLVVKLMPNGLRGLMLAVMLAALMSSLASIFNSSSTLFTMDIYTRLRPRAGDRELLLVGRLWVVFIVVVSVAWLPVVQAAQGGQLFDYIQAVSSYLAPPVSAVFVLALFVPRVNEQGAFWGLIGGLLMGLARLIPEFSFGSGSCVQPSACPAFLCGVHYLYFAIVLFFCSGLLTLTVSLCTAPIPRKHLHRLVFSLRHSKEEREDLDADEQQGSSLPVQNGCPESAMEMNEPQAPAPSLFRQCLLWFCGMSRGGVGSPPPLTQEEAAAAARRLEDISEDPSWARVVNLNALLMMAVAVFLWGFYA
Chain of hSGLT1 (P13866 whole entry): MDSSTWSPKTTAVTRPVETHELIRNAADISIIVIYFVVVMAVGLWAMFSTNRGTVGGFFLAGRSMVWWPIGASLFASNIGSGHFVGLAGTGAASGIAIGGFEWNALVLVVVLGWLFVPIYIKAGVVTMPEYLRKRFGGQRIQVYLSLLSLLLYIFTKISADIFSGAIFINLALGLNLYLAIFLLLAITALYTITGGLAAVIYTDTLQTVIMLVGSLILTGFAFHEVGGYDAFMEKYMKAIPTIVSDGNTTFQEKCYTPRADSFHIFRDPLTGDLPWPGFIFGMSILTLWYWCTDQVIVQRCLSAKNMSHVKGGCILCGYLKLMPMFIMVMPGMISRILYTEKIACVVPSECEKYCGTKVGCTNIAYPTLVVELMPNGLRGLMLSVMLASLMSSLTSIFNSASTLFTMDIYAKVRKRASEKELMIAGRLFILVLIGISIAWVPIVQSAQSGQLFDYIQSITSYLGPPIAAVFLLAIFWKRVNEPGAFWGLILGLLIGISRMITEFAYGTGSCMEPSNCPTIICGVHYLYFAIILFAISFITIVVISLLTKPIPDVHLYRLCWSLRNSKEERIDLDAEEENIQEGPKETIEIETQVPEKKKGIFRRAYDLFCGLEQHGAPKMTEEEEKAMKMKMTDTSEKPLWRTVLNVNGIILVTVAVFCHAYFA

Compound	Urine glucose excretion [1]	Behaviors after administration with the compound to be tested (Mice)	also measured
COc1ccc(Cc2cc(C3OC(CO)CC(O)C3O)ccc2Cl)cc1 (centres unmarked)	310 mg/200 g body weight of the rat		
CCc1ccc(Cc2cc(C3OC(CO)C(O)CC3O)ccc2C)cc1 (centres unmarked)	230 mg/200 g body weight of the rat		
CCOc1ccc(Cc2cc(C3OC(C)(C)C(O)C(O)C3O)ccc2Cl)cc1 (centres unmarked)	470 mg/200 g body weight of the rat		
C=C1OC(c2ccc(Cl)c(Cc3ccc(OC)cc3)c2)C(O)C(O)C1O (centres unmarked)	410 mg/200 g body weight of the rat		
COc1ccc(Oc2cc(C3OC(C)C(O)C(O)C3O)ccc2Cl)cc1 (centres unmarked)	457 mg/200 g body weight of the rat		
OCC1CC(O)C(O)C(c2ccc(Cl)c(Cc3ccc(O[C@H]4CCOC4)cc3)c2)O1 (some centres unmarked)		2 dead	
CCc1ccc(Cc2c(Cl)ccc3c2COC32OC(CO)CC(O)C2O)cc1 (centres unmarked)		5 dead	
CCc1ccc(Cc2c(Cl)ccc3c2COC32OC(C)C(O)C(O)C2O)cc1 (centres unmarked)		3 dead	
CCOc1ccc(Cc2cc(C3SC(C)C(O)C(O)C3O)c(OC)cc2C)cc1 (centres unmarked)		4 dead	
CCOc1ccc(Cc2cc([C@]34C[C@@H](O)[C@H](O)[C@](CO)(CO3)O4)ccc2Cl)cc1		2 dead	
CCOc1ccc(Cc2cc([C@]34OC[C@](CO)(O3)[C@@H](O)C[C@H]4O)ccc2Cl)cc1		3 dead	
Cc1ccc(C2OC(C)C(O)CC2O)cc1Cc1ccc(-c2ccc(F)cc2)s1 (centres unmarked)		0 dead	
OCC1CCC(O)C(c2ccc(Cl)c(Cc3ccc(O[C@H]4CCOC4)cc3)c2)O1 (some centres unmarked)		2 dead	
CCOc1ccc(Cc2cc([C@@H]3C[C@@H](O)[C@H](O)[C@@H](CO)O3)ccc2Cl)cc1 [I-D1-2, (1S)-1-[4-chloro-3-(4-ethoxybenzyl)phenyl]-1,2-dideoxy-D-glucose]			urine glucose excretion effect (comparison in words) [1]: stronger urine glucose excretion effect
CCOc1ccc(Cc2cc([C@@H]3O[C@H](CO)[C@@H](O)C[C@H]3O)ccc2Cl)cc1 [I-D1-3, (1S)-1-[4-chloro-3-(4-ethoxybenzyl)phenyl]-1,3-dideoxy-D-glucose]			urine glucose excretion effect (comparison in words) [1]: stronger urine glucose excretion effect
CCOc1ccc(Cc2cc([C@@H]3O[C@H](CO)C[C@H](O)[C@H]3O)ccc2Cl)cc1 [I-D1-4, (1S)-1-[4-chloro-3-(4-ethoxybenzyl)phenyl]-1,4-dideoxy-D-glucose]			urine glucose excretion effect (comparison in words) [1]: stronger urine glucose excretion effect
CCOc1ccc(Cc2cc(C3OC(C)C(O)C(O)C3O)ccc2Cl)cc1 [I-D1-6, (1S)-1-[4-chloro-3-(4-ethoxybenzyl)phenyl]-1,6-dideoxy-D-glucose]			urine glucose excretion effect (comparison in words) [1]: stronger urine glucose excretion effect; inhibition to SGLT2 (comparison in words) (hSGLT2; [5]): much stronger inhibition to SGLT2; selectivity on SGLT1/SGLT2 (comparison in words) (hSGLT2; [5]): much better selectivity on SGLT1/SGLT2; inhibition to SGLT1 (comparison in words) (hSGLT1): much less inhibition to SGLT1; Appearance ([2]; light (natural daylight, about 80000 Lx), day 0): a white, foam-like; Appearance ([2]; light, day 7): a white, foam-like; Appearance ([2]; light, day 14): a white, foam-like; Number of impurity ([3]; 45° C., day 0, HPLC): 7; Total amount of impurity (%) ([3]; 45° C., day 0, HPLC): 0.89%; Number of impurity ([3]; 45° C., day 7, HPLC): 8; Total amount of impurity (%) ([3]; 45° C., day 7, HPLC): 0.97%; Appearance ([3]; 45° C., day 7): white, foam-like; Number of impurity ([3]; 45° C., day 14, HPLC): 9; Appearance ([3]; 45° C., day 14): white, foam-like; Appearance ([3]; higher temperature (45° C.), day 0): white, foam-like; Appearance ([4]; higher humidity (30% relative humidity at 30° C.), day 0): white, foam-like; Appearance ([4]; higher humidity, day 7): white foam-like; Appearance ([4]; higher humidity, day 14): white foam-like
CCOc1ccc(Cc2cc(C3OC(C)C(O)C(O)C3O)ccc2C)cc1 (centres unmarked) [drawing 219]	700 mg/200 g body weight of the rat		
CCOc1ccc(Cc2cc(C3OC(CO)CC(O)C3O)ccc2Cl)cc1 (centres unmarked) [drawing 229]	880 mg/200 g body weight of the rat		
CCc1ccc(Cc2c(Cl)ccc3c2COC32OC(CO)C(O)C(O)C2O)cc1 (centres unmarked) [drawing 258]	755 mg/200 g body weight of the rat		
CCOc1ccc(Cc2cc(C3CCC(O)C(CO)S3)c(OC)cc2C)cc1 (centres unmarked) [drawing 266]	730 mg/200 g body weight of the rat		
CCc1ccc(Cc2c(Cl)ccc3c2COC32OC(CO)C(O)C(O)C2O)cc1 (centres unmarked) [drawing 269]		7 dead	
CCOc1ccc(Cc2cc(C3OC(CO)CC(O)C3O)ccc2Cl)cc1 (centres unmarked) [drawing 272]		2 dead	
COc1ccc(Cc2cc(C3OC(C)C(O)C(O)C3O)ccc2Cl)cc1 (centres unmarked) [drawing 281]		7 dead	
CCOc1ccc(Cc2cc(C3OC(C)C(O)C(O)C3O)ccc2Cl)cc1 (centres unmarked) [drawing 282]		1 dead	
CCOc1ccc(Cc2cc(C3SC(CO)C(O)CC3O)c(OC)cc2C)cc1 (centres unmarked) [drawing 303]		0 dead	
CCOc1ccc(Cc2cc(C3SC(CO)C(O)CC3O)c(OC)cc2C)cc1 (centres unmarked) [drawing 304]		3 dead	
CCOc1ccc(Cc2cc(C3CCC(O)C(CO)S3)c(OC)cc2C)cc1 (centres unmarked) [drawing 310]		0 dead	
COc1ccc(Cc2cc(C3OC(C)C(O)C(O)C3O)ccc2Cl)cc1 (centres unmarked) [drawing 311]			Selectivity IC50 (hSGLT1)/IC50 (hSGLT2) (hSGLT2): 26
CCOc1ccc(Cc2cc(C3OC(C)C(O)C(O)C3O)ccc2C)cc1 (centres unmarked) [drawing 313]			Selectivity IC50 (hSGLT1)/IC50 (hSGLT2) (hSGLT2): 24
